Experimental data taken from ChEMBL document CHEMBL1153846, “QSAR studies for diarylpyrimidines against HIV-1 reverse transcriptase wild-type and mutant strains” (Eur J Med Chem, 2009).

Assays:
[1] = Hydrophobic index, Log P of the compound; assay type: physicochemical; settings: octanol/water
[2] = tested on: Human immunodeficiency virus type 1 reverse transcriptase (Human immunodeficiency virus 1), Q72547 [[…]]; test: Inhibition of HIV1 reverse transcriptase Y188L mutant
[3] = tested on: Human immunodeficiency virus type 1 reverse transcriptase (Human immunodeficiency virus 1), Q72547 [L100I]; test: Inhibition of HIV1 reverse transcriptase L100I mutant
[4] = biological target: Human immunodeficiency virus type 1 reverse transcriptase (Human immunodeficiency virus 1) (UniProt Q72547); test: Inhibition of HIV1 wild type reverse transcriptase
[5] = tested on: Human immunodeficiency virus type 1 reverse transcriptase (Human immunodeficiency virus 1), Q72547 [Y181C]; test: Inhibition of HIV1 reverse transcriptase Y181C mutant

Row | Structure (SMILES) | logP ([1]; read-out: logP) | log(1/C) [2] | log(1/C) [3] | log(1/C) [4] | log(1/C) [5] | logP [1]
1 | Cc1cc(C#N)cc(C)c1Nc1nc(Nc2ccc(C#N)cc2)ncc1Br | 1.39 | 8.48 | 8.15 | 9.4 | 8.02 | 
2 | Cc1cc(C)c(Oc2nc(Nc3ccc(C#N)cc3)ncc2Br)c(C)c1 | 1.82 | 7.57 | 7.96 | 8.26 | 7.44 | 
3 | N#Cc1ccc(Nc2nccc(Nc3c(Br)cc(F)cc3Br)n2)cc1 | 0.68 | 7.19 | 7.82 | 9.22 | 7.82 | 
4 | Cc1cc(Br)cc(C)c1Nc1ccnc(Nc2ccc(C#N)cc2)n1 | 1.54 | 7.16 | 7.12 | 8.64 | 7.77 | 
5 | Cc1cc(C#N)cc(C)c1Oc1nc(Nc2ccc(C#N)cc2)ncc1[N+](=O)[O-] |  | 6.11 | 6.92 | 7.74 | 6.52 | 0.7
6 | Cc1cc(C#N)cc(C)c1Nc1nc(Nc2ccc(C#N)cc2)nc(CO)c1Br | 0.81 | 8.22 | 8.7 | 8.4 | 8.22 | 
7 | Cc1cc(C)c(Nc2ccnc(Nc3ccc(C#N)cc3)n2)c(C)c1 [DAPIVIRINE] | 1.64 | 7.32 | 7.74 | 9 | 8.12 | 
8 | N#Cc1ccc(Nc2nccc(Nc3c(Cl)cc(Cl)cc3Cl)n2)cc1 | 0.51 | 7 | 7.85 | 9.15 | 8 | 
9 | CC(=O)Nc1cnc(Nc2ccc(C#N)cc2)nc1Oc1c(C)cc(C#N)cc1C | -0.38 |  |  |  |  | 
10 | Cc1cc(Br)c(Nc2ccnc(Nc3ccc(C#N)cc3)n2)c(Br)c1 | 1.44 |  | 8.52 | 9.15 | 8.47 | 
11 | C#Cc1cnc(Nc2ccc(C#N)cc2)nc1Nc1c(C)cc(C)cc1C | 1.63 |  |  |  |  | 
12 | Cc1cc(C)c(Nc2nc(Nc3ccc(C#N)cc3)ncc2-c2ccccc2)c(C)c1 | 3.14 |  |  | 7.62 |  | 
13 | Cc1cc(C#N)cc(C)c1Sc1ccnc(Nc2ccc(C#N)cc2)n1 | 2.06 | 7.36 | 6.76 | 8.24 | 7.17 | 
14 | Cc1cc(C#N)cc(C)c1Nc1nc(Nc2ccc(C#N)cc2)ncc1C#N | 1.06 | 8.07 | 7.04 | 9.3 | 7.12 | 
15 | Cc1cc(Cl)cc(C)c1Nc1ccnc(Nc2ccc(C#N)cc2)n1 | 1.27 | 6.94 | 6.49 | 8.68 | 7.72 | 
16 | Cc1cc(C)c(Nc2nc(Nc3ccc(C#N)cc3)ncc2C#N)c(C)c1 | 1.49 | 7.11 | 7.2 | 9 | 7.4 | 
17 | Cc1cc(Br)cc(C)c1Oc1ccnc(Nc2ccc(C#N)cc2)n1 | 1.72 | 7.1 | 6.95 | 8.54 | 7.23 | 

Row | Structure (SMILES) | logP ([1]; read-out: logP) | log(1/C) [2] | log(1/C) [3] | log(1/C) [4] | log(1/C) [5] | logP [1]
18 | Cc1cc(C#N)cc(C)c1Nc1ccnc(Nc2ccc(C#N)cc2)n1 | 1.21 | 8.11 | 7.47 | 9.4 | 8.15 | 
19 | Cc1cc(C#N)cc(C)c1Oc1nc(Nc2ccc(C#N)cc2)nc(N)c1Br [ETRAVIRINE] | 1.54 | 8.34 | 8.48 | 8.85 | 8.15 | 
20 | Cc1cc(C#N)cc(C)c1Oc1ccnc(Nc2ccc(C#N)cc2)n1 | 1.39 | 7.72 | 7.14 | 8.96 | 7.43 | 
21 | Cc1cc(C#N)cc(C)c1Oc1nc(Nc2ccc(C#N)cc2)ncc1Cl | 1.29 | 8.32 | 8.12 | 8.85 | 7.47 | 
22 | Cc1cc(C)c(Oc2ccnc(Nc3ccc(C#N)cc3)n2)c(C)c1 | 1.82 | 7.26 | 7.66 | 8.54 | 7.42 | 
23 | Cc1cnc(Nc2ccc(C#N)cc2)nc1Nc1c(C)cc(C#N)cc1C | 1.49 | 7.8 | 7.8 | 9.1 | 7.92 | 
24 | Cc1cc(C)c(Nc2nc(Nc3ccc(C#N)cc3)ncc2C)c(C)c1 | 1.92 | 7.74 | 7.92 | 8.77 | 7.92 | 
25 | Cc1cc(C#N)cc(C)c1Nc1nc(Nc2ccc(C#N)cc2)nc(NO)c1Br | 2.18 |  | 8.92 | 8.4 | 7.92 | 
26 | Cc1cc(C#N)cc(C)c1Nc1nc(Nc2ccc(C#N)cc2)ncc1Cl | 1.11 | 8.33 | 8.28 | 8.92 | 7.85 | 
27 | Cc1cc(C#N)cc(C)c1Oc1nc(Nc2ccc(C#N)cc2)ncc1N | -0.21 | 8.24 | 7.8 | 9 | 8.03 | 
28 | C#Cc1cc(C)c(Oc2ccnc(Nc3ccc(C#N)cc3)n2)c(C)c1 | 1.53 | 7.3 | 6.73 | 8.26 | 6.77 | 
29 | Cc1cc(C)c(Nc2nc(Nc3ccc(C#N)cc3)ncc2Cl)c(C)c1 | 1.72 | 7.47 | 7.77 | 8.57 | 7.49 | 
30 | Cc1cccc(C)c1Nc1ccnc(Nc2ccc(C#N)cc2)n1 | 1.49 | 6.59 | 6.67 | 9.15 | 7.21 | 
31 | Cc1cc(Cl)cc(Cl)c1Nc1ccnc(Nc2ccc(C#N)cc2)n1 | 0.89 | 7.07 | 7.22 | 9 | 7.74 | 
32 | Cc1cc(C)c(Sc2ccnc(Nc3ccc(C#N)cc3)n2)c(C)c1 | 2.16 | 7.7 | 7.27 | 8.44 | 7.6 | 
33 | C=Cc1cnc(Nc2ccc(C#N)cc2)nc1Nc1c(C)cc(C)cc1C | 2.1 | 7.54 | 7.46 | 8.6 | 7.44 | 
